{"source": "ChEMBL document CHEMBL5465560", "about": "“Selectivity Literature for EUbOPEN Chemogenomic Library” (2024)", "key": {"[1]": {"biological_target": "Mitogen-activated protein kinase 11 (Homo sapiens) (UniProt Q15759)", "test": "Selectivity interaction (Kinase panel (KiNativ target engagement assay in Jurkat cells)) EUB0001635a MAPK11", "type": "cell-based", "details": "Selectivity number of off-targets 0.0, Selectivity number of targets 233.0, Source Knowledge https://www.sciencedirect.com/science/article/pii/S2451945619300674?via%3Dihub, at 1 µM"}, "[2]": {"biological_target": "Mitogen-activated protein kinase kinase kinase 20 (Homo sapiens) (UniProt Q9NYL2)", "test": "Selectivity interaction (KinomeScan (DiscoverX)) EUB0000229b MAP3K20", "details": "at 10 µM"}, "[3]": {"biological_target": "Tyrosine-protein kinase receptor Tie-1 (Homo sapiens) (UniProt P35590)", "test": "Selectivity interaction (KinomeScan (DiscoverX)) EUB0000695a TIE1", "details": "at 100 nM"}, "[4]": {"biological_target": "Casein kinase I isoform epsilon (Homo sapiens, UniProt P49674)", "test": "Selectivity interaction (KinomeScan (DiscoverX)) EUB0001079a CSNK1E", "details": "at 1 µM"}, "[5]": {"biological_target": "5-hydroxytryptamine receptor 1D (Homo sapiens) (UniProt P28221)", "test": "Selectivity interaction (GPCR panel (PDSP screen)) EUB0001079a HTR1D", "details": "at 10 µM"}, "[6]": {"biological_target": "Fibroblast growth factor receptor 3 (Homo sapiens, UniProt P22607)", "details": "at 10 µM"}, "[7]": {"biological_target": "T1, Myosin-IIIb (Homo sapiens) (UniProt Q8WXR4)", "T1 sequence (whole entry)": "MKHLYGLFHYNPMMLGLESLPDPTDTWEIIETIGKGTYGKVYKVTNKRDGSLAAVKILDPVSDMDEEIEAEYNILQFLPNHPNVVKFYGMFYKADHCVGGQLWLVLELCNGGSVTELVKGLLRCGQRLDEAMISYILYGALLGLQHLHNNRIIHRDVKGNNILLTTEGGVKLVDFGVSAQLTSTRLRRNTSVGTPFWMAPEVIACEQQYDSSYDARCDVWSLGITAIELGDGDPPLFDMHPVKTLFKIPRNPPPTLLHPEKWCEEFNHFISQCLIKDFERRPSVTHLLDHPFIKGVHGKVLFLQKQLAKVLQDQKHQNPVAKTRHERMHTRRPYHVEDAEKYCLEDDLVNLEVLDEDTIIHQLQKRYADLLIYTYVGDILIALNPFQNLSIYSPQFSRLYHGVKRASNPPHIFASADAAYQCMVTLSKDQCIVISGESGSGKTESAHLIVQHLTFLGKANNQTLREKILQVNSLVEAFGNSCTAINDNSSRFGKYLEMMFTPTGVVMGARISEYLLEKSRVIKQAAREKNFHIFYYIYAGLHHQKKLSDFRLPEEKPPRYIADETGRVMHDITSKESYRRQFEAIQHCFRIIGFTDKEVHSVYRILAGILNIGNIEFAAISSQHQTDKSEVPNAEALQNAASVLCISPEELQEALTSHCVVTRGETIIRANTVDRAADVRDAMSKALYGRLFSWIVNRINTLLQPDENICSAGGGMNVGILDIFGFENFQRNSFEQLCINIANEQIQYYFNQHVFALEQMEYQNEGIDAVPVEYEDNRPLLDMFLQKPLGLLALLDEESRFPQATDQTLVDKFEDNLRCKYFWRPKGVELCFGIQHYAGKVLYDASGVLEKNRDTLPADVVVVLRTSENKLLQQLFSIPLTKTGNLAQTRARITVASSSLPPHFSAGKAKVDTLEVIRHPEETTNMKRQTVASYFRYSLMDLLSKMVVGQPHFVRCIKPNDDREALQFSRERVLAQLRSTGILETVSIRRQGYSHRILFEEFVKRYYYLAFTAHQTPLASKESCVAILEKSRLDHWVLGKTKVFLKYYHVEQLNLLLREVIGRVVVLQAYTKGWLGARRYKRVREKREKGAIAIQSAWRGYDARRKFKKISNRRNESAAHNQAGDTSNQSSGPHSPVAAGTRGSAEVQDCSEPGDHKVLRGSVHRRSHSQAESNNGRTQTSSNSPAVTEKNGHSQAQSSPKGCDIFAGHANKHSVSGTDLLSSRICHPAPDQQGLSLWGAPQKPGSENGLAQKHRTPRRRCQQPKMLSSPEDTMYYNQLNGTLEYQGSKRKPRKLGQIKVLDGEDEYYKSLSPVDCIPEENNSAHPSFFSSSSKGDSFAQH", "details": "at 10 µM"}, "[8]": {"biological_target": "Phosphatidylinositol 4-kinase beta (Homo sapiens, UniProt Q9UBF8)", "sequence (Q9UBF8 2-816 limits assumed)": "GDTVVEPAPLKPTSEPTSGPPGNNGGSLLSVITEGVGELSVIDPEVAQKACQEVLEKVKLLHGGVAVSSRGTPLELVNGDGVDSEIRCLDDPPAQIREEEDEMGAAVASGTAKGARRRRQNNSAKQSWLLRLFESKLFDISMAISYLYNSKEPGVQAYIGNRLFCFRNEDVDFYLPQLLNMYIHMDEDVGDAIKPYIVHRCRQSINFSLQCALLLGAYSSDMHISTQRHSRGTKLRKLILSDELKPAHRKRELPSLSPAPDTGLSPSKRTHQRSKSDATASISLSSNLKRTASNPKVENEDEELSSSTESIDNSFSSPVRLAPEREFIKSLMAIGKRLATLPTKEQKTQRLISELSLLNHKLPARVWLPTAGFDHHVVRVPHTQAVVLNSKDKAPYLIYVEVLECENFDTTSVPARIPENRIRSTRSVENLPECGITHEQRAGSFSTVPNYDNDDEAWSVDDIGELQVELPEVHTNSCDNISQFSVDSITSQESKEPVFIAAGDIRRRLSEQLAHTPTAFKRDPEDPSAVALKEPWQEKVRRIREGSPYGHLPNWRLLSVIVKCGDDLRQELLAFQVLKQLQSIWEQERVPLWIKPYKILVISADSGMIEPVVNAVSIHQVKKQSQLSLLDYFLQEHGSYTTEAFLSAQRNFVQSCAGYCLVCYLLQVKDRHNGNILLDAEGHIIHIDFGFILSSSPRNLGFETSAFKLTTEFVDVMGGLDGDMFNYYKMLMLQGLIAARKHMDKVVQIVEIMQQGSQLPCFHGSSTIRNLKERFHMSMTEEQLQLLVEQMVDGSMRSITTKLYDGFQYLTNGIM", "details": "at 10 µM"}, "[9]": {"biological_target": "Ribosomal protein S6 kinase alpha-2 (Homo sapiens) (UniProt Q15349)", "test": "Selectivity interaction (Kinase screening (Nanosyn)) EUB0000604a RPS6KA2"}, "Aurora kinase A": {"biological_target": "Aurora kinase A (Homo sapiens, UniProt O14965)", "sequence (O14965 whole entry)": "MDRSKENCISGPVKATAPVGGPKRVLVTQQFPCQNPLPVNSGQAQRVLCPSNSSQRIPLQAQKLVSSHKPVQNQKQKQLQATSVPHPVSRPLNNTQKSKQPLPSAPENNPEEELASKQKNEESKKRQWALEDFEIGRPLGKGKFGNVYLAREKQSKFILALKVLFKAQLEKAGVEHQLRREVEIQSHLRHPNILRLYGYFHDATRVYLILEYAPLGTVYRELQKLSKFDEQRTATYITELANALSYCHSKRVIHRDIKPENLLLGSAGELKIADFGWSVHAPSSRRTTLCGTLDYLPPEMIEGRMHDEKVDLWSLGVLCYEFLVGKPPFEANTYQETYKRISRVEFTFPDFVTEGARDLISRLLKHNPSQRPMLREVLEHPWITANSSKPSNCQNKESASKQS", "test": "Selectivity interaction (Kinase panel (33PanQinase(R) Activity Assay)) EUB0000877a STK6"}, "[10]": {"biological_target": "Tyrosine-protein kinase BTK (Homo sapiens, UniProt Q06187)", "sequence (Q06187 whole entry)": "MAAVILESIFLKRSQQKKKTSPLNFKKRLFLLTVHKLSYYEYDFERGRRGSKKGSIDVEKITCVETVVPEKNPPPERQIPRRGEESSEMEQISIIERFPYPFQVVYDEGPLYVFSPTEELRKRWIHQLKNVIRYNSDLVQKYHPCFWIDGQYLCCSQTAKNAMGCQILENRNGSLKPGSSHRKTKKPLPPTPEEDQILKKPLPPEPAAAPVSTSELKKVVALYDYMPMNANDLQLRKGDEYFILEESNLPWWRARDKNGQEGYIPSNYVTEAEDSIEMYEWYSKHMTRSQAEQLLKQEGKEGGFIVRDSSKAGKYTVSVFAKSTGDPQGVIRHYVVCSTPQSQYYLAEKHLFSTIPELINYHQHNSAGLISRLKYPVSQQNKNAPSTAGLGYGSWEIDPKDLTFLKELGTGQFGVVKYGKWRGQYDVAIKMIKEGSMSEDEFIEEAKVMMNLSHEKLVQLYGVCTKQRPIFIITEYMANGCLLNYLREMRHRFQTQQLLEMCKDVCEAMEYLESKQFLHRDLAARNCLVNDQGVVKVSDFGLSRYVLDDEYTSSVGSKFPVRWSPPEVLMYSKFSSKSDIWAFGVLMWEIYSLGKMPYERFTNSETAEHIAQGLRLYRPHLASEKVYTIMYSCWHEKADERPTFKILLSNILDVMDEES", "test": "Selectivity interaction (ProQinase) EUB0000171b BTK"}, "[11]": {"biological_target": "Serine/threonine-protein kinase WNK1 (Homo sapiens) (UniProt Q9H4A3)", "test": "Selectivity interaction (ProQinase) EUB0000171b WNK1"}, "[12]": {"biological_target": "Protein-tyrosine kinase 6 (Homo sapiens, UniProt Q13882)", "sequence (Q13882 whole entry, looked up)": "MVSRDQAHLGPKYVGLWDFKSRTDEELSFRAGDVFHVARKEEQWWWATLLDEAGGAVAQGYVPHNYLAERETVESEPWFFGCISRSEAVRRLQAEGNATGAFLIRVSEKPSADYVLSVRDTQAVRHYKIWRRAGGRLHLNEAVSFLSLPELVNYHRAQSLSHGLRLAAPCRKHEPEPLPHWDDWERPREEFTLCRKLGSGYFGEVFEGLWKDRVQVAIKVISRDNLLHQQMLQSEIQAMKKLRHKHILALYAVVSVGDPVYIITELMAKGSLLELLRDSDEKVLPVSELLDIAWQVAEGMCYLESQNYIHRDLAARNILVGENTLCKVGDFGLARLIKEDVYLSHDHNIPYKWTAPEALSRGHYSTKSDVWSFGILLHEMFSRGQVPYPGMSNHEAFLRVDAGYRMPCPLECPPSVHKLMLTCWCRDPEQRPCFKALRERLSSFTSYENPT", "test": "Selectivity interaction (KinomeScan (DiscoverX)) EUB0000607a PTK6", "details": "at 10 µM"}, "[13]": {"biological_target": "Mitogen-activated protein kinase 1 (Homo sapiens, UniProt P28482)", "test": "Selectivity interaction (KinomeScan (DiscoverX)) EUB0000618a MAPK1", "details": "at 10 µM"}, "[14]": {"biological_target": "Beta-2 adrenergic receptor (Homo sapiens, UniProt P07550)", "test": "Selectivity interaction (Panel of kinases, GPCRs, ion channels and transporters (enzymatic assay)) EUB0000266bCl ADRB2"}, "[15]": {"biological_target": "Serine/threonine-protein kinase 38-like (Homo sapiens) (UniProt Q9Y2H1)", "test": "Selectivity interaction (ActivX KiNativ screen (kinase selectivity in THP-1 cell lysates)) EUB0000639a STK38L", "type": "subcellular", "details": "lysate, at 5 µM"}, "[16]": {"biological_target": "Ribosomal protein S6 kinase alpha-1 (Homo sapiens, UniProt Q15418)", "test": "Selectivity interaction (ActivX KiNativ screen (kinase selectivity in THP-1 cell lysates)) EUB0000639a RPS6KA1", "type": "subcellular", "details": "lysate, at 0.04 µM"}, "[17]": {"biological_target": "Serine/threonine-protein kinase 24 (Homo sapiens) (UniProt Q9Y6E0)", "sequence (Q9Y6E0 whole entry, looked up)": "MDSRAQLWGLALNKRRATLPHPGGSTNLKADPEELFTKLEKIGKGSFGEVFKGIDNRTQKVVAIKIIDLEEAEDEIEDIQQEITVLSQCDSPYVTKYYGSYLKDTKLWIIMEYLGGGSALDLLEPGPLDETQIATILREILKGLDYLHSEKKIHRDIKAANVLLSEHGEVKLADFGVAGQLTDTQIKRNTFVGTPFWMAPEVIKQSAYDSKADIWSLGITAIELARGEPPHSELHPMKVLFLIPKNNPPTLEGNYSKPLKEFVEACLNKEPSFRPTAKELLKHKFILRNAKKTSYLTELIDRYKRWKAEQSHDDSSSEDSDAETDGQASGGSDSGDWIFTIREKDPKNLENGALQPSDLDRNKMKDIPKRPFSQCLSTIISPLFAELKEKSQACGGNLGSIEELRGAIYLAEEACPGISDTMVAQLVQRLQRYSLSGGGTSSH", "test": "Selectivity interaction (Kinase panel (Invitrogen)) EUB0000639a STK24", "details": "at 200 nM"}, "[18]": {"biological_target": "Serine/threonine-protein kinase WNK2 (Homo sapiens) (UniProt Q9Y3S1)", "sequence (Q9Y3S1 whole entry)": "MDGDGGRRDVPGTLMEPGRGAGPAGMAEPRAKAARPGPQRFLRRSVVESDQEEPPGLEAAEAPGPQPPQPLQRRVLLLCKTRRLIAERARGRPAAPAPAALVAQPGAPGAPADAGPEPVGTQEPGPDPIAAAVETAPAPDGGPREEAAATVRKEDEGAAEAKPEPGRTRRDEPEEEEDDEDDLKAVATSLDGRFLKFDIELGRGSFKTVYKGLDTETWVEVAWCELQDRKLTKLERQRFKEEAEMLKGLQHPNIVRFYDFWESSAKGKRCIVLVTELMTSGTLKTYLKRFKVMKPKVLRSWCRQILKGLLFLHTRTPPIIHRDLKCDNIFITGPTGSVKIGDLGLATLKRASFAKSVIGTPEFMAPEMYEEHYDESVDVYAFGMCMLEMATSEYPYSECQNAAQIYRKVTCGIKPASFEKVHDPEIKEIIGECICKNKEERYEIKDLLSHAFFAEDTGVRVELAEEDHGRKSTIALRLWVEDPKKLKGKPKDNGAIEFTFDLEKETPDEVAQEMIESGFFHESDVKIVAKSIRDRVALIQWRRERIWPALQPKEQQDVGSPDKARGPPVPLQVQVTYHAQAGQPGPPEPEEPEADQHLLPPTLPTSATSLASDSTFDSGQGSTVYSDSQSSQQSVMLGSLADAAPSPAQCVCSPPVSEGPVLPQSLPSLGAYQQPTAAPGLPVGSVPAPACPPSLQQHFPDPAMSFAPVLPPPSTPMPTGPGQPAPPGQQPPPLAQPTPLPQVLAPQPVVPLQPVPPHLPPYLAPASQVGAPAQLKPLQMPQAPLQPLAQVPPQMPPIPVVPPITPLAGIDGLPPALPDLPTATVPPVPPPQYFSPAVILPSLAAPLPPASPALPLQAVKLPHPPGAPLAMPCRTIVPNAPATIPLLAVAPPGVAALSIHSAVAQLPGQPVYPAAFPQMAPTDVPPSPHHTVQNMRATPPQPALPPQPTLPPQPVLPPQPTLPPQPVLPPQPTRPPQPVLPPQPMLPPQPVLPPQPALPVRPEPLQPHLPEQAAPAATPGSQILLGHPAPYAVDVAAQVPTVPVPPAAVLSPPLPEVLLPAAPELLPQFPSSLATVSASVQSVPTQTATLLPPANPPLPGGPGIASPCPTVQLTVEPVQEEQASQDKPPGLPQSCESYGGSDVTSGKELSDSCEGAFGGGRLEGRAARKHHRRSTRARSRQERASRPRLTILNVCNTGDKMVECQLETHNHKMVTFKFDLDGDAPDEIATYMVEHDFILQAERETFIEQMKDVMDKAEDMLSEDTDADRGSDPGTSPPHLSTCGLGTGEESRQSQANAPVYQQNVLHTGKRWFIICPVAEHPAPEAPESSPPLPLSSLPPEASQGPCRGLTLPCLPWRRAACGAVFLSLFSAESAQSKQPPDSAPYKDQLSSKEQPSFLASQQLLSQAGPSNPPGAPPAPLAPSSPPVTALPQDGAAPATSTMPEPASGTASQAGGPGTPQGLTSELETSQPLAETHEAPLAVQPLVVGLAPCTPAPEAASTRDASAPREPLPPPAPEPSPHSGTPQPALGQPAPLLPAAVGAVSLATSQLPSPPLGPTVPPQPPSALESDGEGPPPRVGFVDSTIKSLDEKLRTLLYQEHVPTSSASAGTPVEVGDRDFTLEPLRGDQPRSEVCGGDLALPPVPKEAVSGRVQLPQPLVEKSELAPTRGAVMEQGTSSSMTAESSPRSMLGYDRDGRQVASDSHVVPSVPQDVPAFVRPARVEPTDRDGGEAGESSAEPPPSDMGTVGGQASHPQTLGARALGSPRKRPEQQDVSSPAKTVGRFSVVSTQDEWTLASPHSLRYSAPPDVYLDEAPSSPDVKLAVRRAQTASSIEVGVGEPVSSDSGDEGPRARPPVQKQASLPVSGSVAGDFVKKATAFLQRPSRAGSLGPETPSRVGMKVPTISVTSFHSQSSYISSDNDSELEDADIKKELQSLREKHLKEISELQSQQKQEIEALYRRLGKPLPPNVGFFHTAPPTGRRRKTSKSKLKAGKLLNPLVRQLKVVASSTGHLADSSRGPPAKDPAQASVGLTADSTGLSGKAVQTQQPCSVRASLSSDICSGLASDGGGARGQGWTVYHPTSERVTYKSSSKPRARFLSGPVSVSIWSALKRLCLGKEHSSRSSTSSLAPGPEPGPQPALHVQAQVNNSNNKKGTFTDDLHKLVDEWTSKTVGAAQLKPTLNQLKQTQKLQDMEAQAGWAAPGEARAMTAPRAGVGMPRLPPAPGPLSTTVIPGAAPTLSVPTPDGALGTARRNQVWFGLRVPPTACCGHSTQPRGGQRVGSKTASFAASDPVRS", "test": "Selectivity interaction (ActivX KiNativ screen (kinase selectivity in THP-1 cell lysates)) EUB0000639a WNK2", "type": "subcellular", "details": "lysate"}}, "data": [{"smiles": "C=CC(=O)Nc1ccc(C(=O)Nc2[nH]nc3c2CN(C(=O)N[C@H](CN(C)C)c2ccccc2)C3(C)C)cc1", "values": [{"measurement": "% of engagement", "setting": "[1]", "result": -9.9, "unit": "%"}]}, {"smiles": "COc1cc(N(C)c2ccnc3ccc(C(F)(F)F)cc23)cc(OC)c1OC", "values": [{"measurement": "% binding", "setting": "[2]", "result": 91, "unit": "%"}]}, {"smiles": "Cc1cc(F)c(C(=O)Nc2cccc(-c3nncn3C(C)C)n2)cc1-n1cnc(C2CC2)c1", "values": [{"measurement": "% of control", "setting": "[3]", "result": 87, "unit": "%"}]}, {"smiles": "Nc1cnc(N2CCc3cc(S(=O)(=O)Nc4c(F)cc(Cl)cc4F)cc(N4CCCC4=O)c32)nc1", "note": "[TP-020n]", "values": [{"measurement": "% of control", "setting": "[4]", "result": 89, "unit": "%"}, {"measurement": "% of inhibition", "setting": "[5]", "result": 9.24, "unit": "%"}]}, {"smiles": "Cc1cc([C@@H](C)Nc2ccccc2C(=O)O)c2nc(N3CCOCC3)cc(=O)n2c1", "note": "[AZD-6482]", "values": [{"measurement": "% of control", "setting": "[6]", "result": 83, "unit": "%"}, {"measurement": "% of control", "setting": "[7]", "result": 93, "unit": "%"}, {"measurement": "% of control", "setting": "[8]", "result": 100, "unit": "%"}]}, {"smiles": "Cc1cnc(Nc2ccc(F)cc2Cl)nc1-c1c[nH]c(C(=O)N[C@H](CO)c2cccc(Cl)c2)c1", "values": [{"measurement": "% of inhibition", "setting": "[9]", "result": 7, "unit": "%"}]}, {"smiles": "CCC(=O)N1CC[C@H](Nc2ncnc3c2CN(c2cnc(OC)c(C(F)(F)F)c2)CC3)C1", "note": "[LENIOLISIB]", "values": [{"measurement": "IC50", "setting": "Aurora kinase A", "result": "> 10", "unit": "µM"}]}, {"smiles": "C=CC(=O)Nc1cccc(C(=O)Nc2ccc(Nc3cc(-c4[nH]c(SC)nc4C)ccn3)cc2)c1", "values": [{"measurement": "% of control", "setting": "[10]; at 1 µM", "result": 101, "unit": "%"}, {"measurement": "% of control", "setting": "[10]; at 5 µM", "result": 87, "unit": "%"}, {"measurement": "% of control", "setting": "[11]; at 1 µM", "result": 95, "unit": "%"}, {"measurement": "% of control", "setting": "[11]; at 5 µM", "result": 81, "unit": "%"}]}, {"smiles": "CNC(=O)Nc1ccc(-c2nc(N3CC4CCC(C3)O4)c3cnn(C4CCC5(CC4)OCCO5)c3n2)cc1", "values": [{"measurement": "% of control", "setting": "[12]", "result": 55, "unit": "%"}]}, {"smiles": "O[C@H]1CC[C@H](Nc2ncc3nc(Nc4c(F)cc(F)cc4F)n([C@H]4CCOC4)c3n2)CC1", "values": [{"measurement": "% of control", "setting": "[13]", "result": 15, "unit": "%"}]}, {"smiles": "CCn1c(-c2nc3cc(C(=O)N4CCCC(N)C4)ccc3n2C)cc2ccccc21", "note": "(stereo not given)", "values": [{"measurement": "pXC50", "setting": "[14]", "result": "< 4.5", "unit": "M"}]}, {"smiles": "CC[C@@H]1[C@H](F)C(=O)N[C@@H]1COc1nccc2cc(C(N)=O)c(OC)cc12", "note": "[ZIMLOVISERTIB]", "values": [{"measurement": "% of inhibition", "setting": "[15]", "result": 77.4, "unit": "%"}, {"measurement": "% of inhibition", "setting": "[16]", "result": -5.9, "unit": "%"}, {"measurement": "% of inhibition", "setting": "[17]", "result": 23.2, "unit": "%"}, {"measurement": "% of inhibition", "setting": "[18]; at 0.01 µM", "result": 10.1, "unit": "%"}, {"measurement": "% of inhibition", "setting": "[18]; at 0.04 µM", "result": 23.3, "unit": "%"}, {"measurement": "% of inhibition", "setting": "[18]; at 0.2 µM", "result": 9.7, "unit": "%"}, {"measurement": "% of inhibition", "setting": "[18]; at 1 µM", "result": 3.1, "unit": "%"}, {"measurement": "% of inhibition", "setting": "[18]; at 5 µM", "result": 3, "unit": "%"}]}]}
